Results from ChEMBL document CHEMBL1614629, “Extrapolation of human pharmacokinetic parameters from rat, dog, and monkey data: Molecular properties associated with extrapolative success or failure” (J Pharm Sci, 2005).

Key:
[1] = Volume of distribution at steady state in dog after iv administration; assay type: ADME, organism-based, Canis lupus familiaris; details: in vivo, read-out: Vdss
[2] = Volume of distribution at steady state in monkey after iv administration; assay type: ADME, organism-based; details: macaca, in vivo, read-out: Vdss
[3] = Volume of distribution at steady state in human after iv administration; assay type: ADME, organism-based; details: in vivo, read-out: Vdss
[4] = Volume of distribution at steady state in rat after iv administration; assay type: ADME, organism-based; details: in vivo
[5] = Clearance in human after iv administration; assay type: ADME, organism-based; details: in vivo
[6] = Clearance in dog after iv administration; assay type: ADME, organism-based, Canis lupus familiaris; details: in vivo
[7] = Clearance in monkey after iv administration; assay type: ADME, organism-based; details: macaca, in vivo
[8] = Clearance in rat after iv administration; assay type: ADME, organism-based; details: in vivo

SMILES	Vd [1] [L/kg]	Vd [2] [L/kg]	Vd [3] [L/kg]	Vdss [4] [L/kg]	clearance [5] [mL/min/kg]	clearance [6] [mL/min/kg]	clearance [7] [mL/min/kg]	clearance [8] [mL/min/kg]
Cn1cc(/C=C2/C(=O)N3C(C(=O)O)=CS[C@H]23)nn1	0.32	0.27	0.28	1.3				
O=C(OC1C[C@@H]2CC3C[C@@H](C1)N2CC3O)c1c[nH]c2ccccc12 (stereo partly drawn)	9.6	28	11	15	22	27	77	94
CC(C)(C)S(=O)(=O)C[C@@H](Cc1ccccc1)C(=O)N[C@@H](Cc1cnc[nH]1)C(=O)N[C@@H](CC1CCCCC1)[C@@H](O)[C@@H](O)C1CC1	1.5	1.7	0.84	4.4	10	25	20	
CC(=N)N1CC[C@H](SC2=C(C(=O)O)N3C(=O)[C@H]([C@@H](C)O)[C@H]3C2)C1	0.22	0.3	0.18	0.19	3.1	4.9	6.5	28
Cc1cccc(C)c1NC(=O)NCCCNC(C)C	1.2	3.8	1.4	3.2	7.2	13	32	82
C[C@@H](O)[C@H]1C(=O)N2C(C(=O)O)=C(COC(N)=O)S[C@H]12	0.23	0.15	0.25	0.05	7.2	7.7	4.7	16
NC1(C(=O)O)CC1 [1-Aminocyclopropane carboxylic acid]	0.7	0.72	0.73	0.64	1.5	0.4	3.1	3.2
N[C@H](C(=O)O)[C@@H]1CC(Cl)=NO1 [ACIVICIN]	0.5	0.56	0.58	0.65	0.78	1.3	3.3	5.2
CC1=NC(=O)C(CCN(C(C)C)C(C)C)(c2ccccc2)C2CCCCN12 (stereo not drawn) [ACTISOMIDE]	1.1	1.6	0.58	1.1	6.8	9	16.4	9.8
C[C@@H]1[C@H](O)[C@@H](C)/C=C/C=C/C=C/C=C/C=C/C=C/C=C/[C@H](O[C@@H]2O[C@H](C)[C@@H](O)[C@H](N)[C@@H]2O)C[C@@H]2O[C@](O)(C[C@@H](O)C[C@@H](O)[C@H](O)CC[C@@H](O)C[C@@H](O)CC(=O)O[C@H]1C)C[C@H](O)[C@H]2C(=O)O [AMPHOTERICIN B]	0.5	0.2	4	2.3	0.4	0.1	0.1	2
Cc1cc(=O)n(-c2ccccc2)n1C [ANTIPYRINE]	0.62	0.74	0.87	0.97	0.66	5.5	4.4	10
C[C@@H](O)[C@H]1C(=O)N2C(C(=O)[O-])=C(SC3Cn4cnc[n+]4C3)[C@H](C)[C@H]12 (stereo partly drawn) [BIAPENEM]	0.28	0.23	0.25	0.24	2.7	6.2	5.3	16
Cn1c(=O)c2c(ncn2C)n(C)c1=O [CAFFEINE]	0.76	0.83	0.73	0.92	2	2.1	3.1	
CO/N=C(\C(=O)N[C@@H]1C(=O)N2C(C(=O)[O-])=C(C[N+]34CCC(C(N)=O)(CC3)CC4)CS[C@H]12)c1nsc(N)n1 [CEFCLIDIN]	0.23	0.28	0.17	0.22	1.5	3.6	3.4	8.8
CO[C@@]1(NC(=O)CSCC#N)C(=O)N2C(C(=O)O)=C(CSc3nnnn3C)CS[C@@H]21 [CEFMETAZOLE]	0.24	0.14	0.14	0.49	1.8	5.3	3.8	40
CO/N=C(\C(=O)N[C@@H]1C(=O)N2C(C(=O)O)=C(CSc3nc(C)c(CC(=O)O)s3)CS[C@H]12)c1csc(N)n1 [CEFODIZIME]	0.26	0.15	0.15	0.18	0.73	4.1	1.2	1.1
CO[C@@]1(NC(=O)C2SC(=C(C(N)=O)C(=O)O)S2)C(=O)N2C(C(=O)O)=C(CSc3nnnn3C)CS[C@@H]21 (stereo partly drawn) [CEFOTETAN]	0.25	0.17	0.13	0.25	0.5	4	1.7	13
CO/N=C(\C(=O)N[C@@H]1C(=O)N2C(C(=O)[O-])=C(C[n+]3ccn4ncccc43)CS[C@H]12)c1nsc(N)n1 [CEFOZOPRAN]	0.21	0.2	0.27	0.2	1.5	3	1.9	9.4

SMILES	Vd [1] [L/kg]	Vd [2] [L/kg]	Vd [3] [L/kg]	Vdss [4] [L/kg]	clearance [5] [mL/min/kg]	clearance [6] [mL/min/kg]	clearance [7] [mL/min/kg]	clearance [8] [mL/min/kg]
Cc1cc(O)c(C(=O)N[C@@H](C(=O)N[C@@H]2C(=O)N3C(C(=O)O)=C(CSc4nnnn4C)CS[C@H]23)c2ccc(O)cc2)cn1 [CEFPIRAMIDE]	0.45	0.1	0.11	0.26	0.28	5.1	0.52	9.5
COC(=O)[C@H]1[C@@H](OC(=O)c2ccccc2)C[C@@H]2CC[C@H]1N2C [COCAINE]	3.8	7.4		16	32	102	64	260
CO[C@@]1(NC(=O)CSC(F)F)C(=O)N2C(C(=O)O)=C(CSc3nnnn3CCO)CO[C@@H]21 [FLOMOXEF]	0.32	0.3	0.52	0.23				
CC1(C)O[C@@H]2C[C@H]3[C@@H]4C[C@H](F)C5=CC(=O)C=C[C@]5(C)[C@H]4[C@@H](O)C[C@]3(C)[C@]2(C(=O)CO)O1 [FLUNISOLIDE]	3.7	4		3	12	12.9	19	8.8
CC(C)n1c(/C=C/C(O)CC(O)CC(=O)O)c(-c2ccc(F)cc2)c2ccccc21 (stereo not drawn) [FLUVASTATIN]	0.7	3.7	0.42	1				
O=C(c1ccccc1)c1ccc2n1CCC2C(=O)O (stereo not drawn) [KETOROLAC]	0.33	0.09		0.56		1.3	0.6	3.6
N=C(N)c1ccc(C(=O)N[C@@H](Cc2ccc(O)cc2)C(=O)N2CCC(OCC(=O)O)CC2)cc1 [LAMIFIBAN]	0.75	0.29	0.29	0.24				
CN(Cc1cnc2nc(N)nc(N)c2n1)c1ccc(C(=O)N[C@@H](CCC(=O)O)C(=O)O)cc1 [METHOTREXATE]		1.2	0.67	0.4	2.5	1.2	8	12
COCCc1ccc(OCC(O)CNC(C)C)cc1 (stereo not drawn) [METOPROLOL]	4.5	3		7	15	23	30	185
N=C(N)N1CCC[C@@H](CNC(=O)C[C@H](NS(=O)(=O)c2ccc3ccccc3c2)C(=O)N(CC(=O)O)C2CC2)C1 [NAPSAGATRAN ANHYDROUS]	0.69	0.26	0.32	0.62				
COC(=O)C1=C(C)NC(C)=C(C(=O)OCCN(C)Cc2ccccc2)C1c1cccc([N+](=O)[O-])c1 (stereo not drawn) [NICARDIPINE]	1.3	1.9	0.64	1.3				
CN1CCC[C@H]1c1cccnc1 [NICOTINE]	3.3	1.5		4.7	19	42	14	66
C[C@]12C=CC(=O)C=C1CC[C@@H]1[C@@H]2C(=O)C[C@@]2(C)[C@H]1CC[C@]2(O)C(=O)CO [PREDNISONE]	2.1	1.6		1.4	3.6	27	13	163
CC(C)NCC(O)COc1cccc2ccccc12 (stereo not drawn) [PROPRANOLOL]	1.7	0.6	3.6	5.3	15		14	
CN1C(C(=O)Nc2nccs2)=C(O)c2ccccc2S1(=O)=O [SUDOXICAM]	0.2	0.2	0.2	0.2				
C[C@@H](O)[C@H]1C(=O)N2C(C(=O)O)=C(SCCOC(N)=O)S[C@H]12 [Sch-34343]	0.22	0.17	0.34	0.17				
NC(=O)c1csc([C@@H]2O[C@H](CO)[C@@H](O)[C@H]2O)n1 [TIAZOFURIN]	0.9	2	0.9	2.5				
Cc1cn([C@H]2C[C@H](N=[N+]=[N-])[C@@H](CO)O2)c(=O)[nH]c1=O [ZIDOVUDINE]	1	1			24	14	15	46
